Patent publication US5985844A, “Homoerythromycin A derivatives modified at the 4"-and 8A-positions” (Merck & Co., Inc., priority 1992, dated 1999)
Values after ≈ are worked out from the molar mass of the structure shown. Read-outs that look alike come from different tables or passages of the source.

Tests used:
Experiment in all cases: liquid turbidimetric microtiter MIC, broth media
Assay type in all cases: cell-based
[1] = tested on: Staphylococcus epidermidis MB 5414
Text: (§1) The antibacterial activities of the compounds of Examples 8 and 10 against a panel of aerobic Gram positive and negative bacteria is shown in Table I. Similarly, the antibacterial activities of the compounds of Examples 89, 94, 96, and 97 are presented in Table II. The assay employs a liquid turbidimetric microtiter method for the determination of the minimum inhibitory concentration (MIC) in broth media. […] The MIC is generally not an absolute value but rather a concentration range that falls within a two-fold dilution limit. Generally twelve two-fold dilutions of the test compound are employed with the initial concentration set at 128 mcg/ml.

[2] = tested on: Enterobacter cloacae CL 4298
Text: as §1

[3] = tested on: Haemophilus influenzae MB 5363
Text: as §1

[4] = tested on: Staphylococcus aureus MB 2865
Text: as §1

[5] = tested on: Klebsiella pneumoniae MB 4005
Text: as §1

[6] = tested on: Haemophilus influenzae AT 43163
Text: as §1

[7] = tested on: Enterococcus faecalis MB 5407
Text: as §1

[8] = tested on: Streptococcus pneumoniae CL 2883
Text: as §1

[9] = tested on: Streptococcus pyogenes MB 2874
Text: as §1

Escherichia coli MB 2884 = tested on: Escherichia coli MB 2884
Text: as §1

[10] = tested on: Streptococcus agalactiae CL 1343; conditions: CL1343
Text: as §1

[11] = tested on: Staphylococcus haemolyticus MB 5412; conditions: MB5412
Text: as §1

[12] = tested on: Pseudomonas stutzeri MB 1231; conditions: Stutzerimonas stutzeri, MB1231
Text: as §1

Escherichia coli MB 4926 = conditions: MB4926
Text: as §1

[13] = tested on: Enterococcus faecium MB 5416; conditions: MB5416
Text: as §1

[14] = tested on: Streptococcus pyogenes MB 54061; conditions: MB54061
Text: as §1

[15] = tested on: Streptococcus viridans CL 2943; conditions: CL2943
Text: as §1

Molecule | MIC ([1]; MB5414, read-out: MIC) [µg/mL] | MIC ([4]; MB2865, read-out: MIC) [µg/mL] | MIC ([5]; MB4005, read-out: MIC) [µg/mL] | MIC ([7]; MB5407, read-out: MIC) [µg/mL] | MIC ([8]; CL2883, read-out: MIC) [µg/mL] | MIC ([9]; MB2874, read-out: MIC) [µg/mL] | MIC (Escherichia coli MB 2884; MB2884, read-out: MIC) [µg/mL] | MIC [1] [µg/mL] | MIC [2] [µg/mL] | MIC [3] [µg/mL] | MIC [4] [µg/mL] | MIC [5] [µg/mL] | MIC [6] [µg/mL] | MIC [7] [µg/mL] | MIC [8] [µg/mL] | MIC [9] [µg/mL] | MIC (Escherichia coli MB 2884) [µg/mL] | further results
CC[C@H]1OC(=O)[C@H](C)[C@@H](O[C@H]2C[C@@](C)(OC)[C@H](O)[C@H](C)O2)[C@H](C)[C@@H](O[C@@H]2O[C@H](C)C[C@H](N(C)C)[C@H]2O)[C@](C)(O)C[C@@H](C)N(C)C[C@H](C)[C@@H](O)[C@]1(C)O [Example 89, 4"-epi-9-deoxo-8a-aza-8a-methyl-8a-homoerythromycin A] | 0.25 (≈ 0.334 µM) | 0.5 (≈ 0.668 µM) | 1 (≈ 1.34 µM) | 1 (≈ 1.34 µM) | ≤ 0.06 | ≤ 0.06 | 1 (≈ 1.34 µM) | – | – | – | – | – | – | – | – | – | – | MIC ([2]; CL4298, read-out: MIC): 0.5 µg/mL (≈ 0.668 µM); MIC ([3]; MB5363, read-out: MIC): 0.5 µg/mL (≈ 0.668 µM); MIC ([6]; AT43163, read-out: MIC): 0.5 µg/mL (≈ 0.668 µM)
CC[C@H]1OC(=O)[C@H](C)[C@@H](O[C@H]2C[C@@](C)(OC)[C@@H](O)[C@H](C)O2)[C@H](C)[C@@H](O[C@@H]2O[C@H](C)C[C@H](N(C)C)[C@H]2O)[C@](C)(O)C[C@@H](C)N(C)C[C@H](C)[C@@H](O)[C@]1(C)O [Example 10, 9-Deoxo-8a-aza-8a-methyl-8a-homoerythromycin A] | 1 (≈ 1.34 µM) | 0.5 (≈ 0.668 µM) | 2 (≈ 2.67 µM) | 4 (≈ 5.34 µM) | ≤ 0.06 | ≤ 0.06 | 1 (≈ 1.34 µM) | – | – | – | – | – | – | – | – | – | – | MIC [10]: ≤ 0.06 µg/mL; MIC [11]: 0.5 µg/mL (≈ 0.668 µM); MIC [12]: ≤ 0.06 µg/mL; MIC (Escherichia coli MB 4926): 0.06 µg/mL (≈ 0.0801 µM); MIC [13]: 0.25 µg/mL (≈ 0.334 µM); MIC [14]: 128 µg/mL (≈ 171 µM); MIC [15]: 1 µg/mL (≈ 1.34 µM)
CC[C@H]1OC(=O)[C@H](C)[C@@H](O[C@H]2C[C@@](C)(OC)[C@H](N)[C@H](C)O2)[C@H](C)[C@@H](O[C@@H]2O[C@H](C)C[C@H](N(C)C)[C@H]2O)[C@](C)(O)C[C@@H](C)N(C)C[C@H](C)[C@@H](O)[C@]1(C)O [Example 97, 4"-Deoxy-4"-(R)-amino-9-deoxo-8a-aza-8a-methyl-8a-homoerythromycin A] | – | – | – | – | – | – | – | 0.5 (≈ 0.668 µM) | 0.12 (≈ 0.16 µM) | 0.5 (≈ 0.668 µM) | 1 (≈ 1.34 µM) | 0.25 (≈ 0.334 µM) | 0.25 (≈ 0.334 µM) | 2 (≈ 2.67 µM) | ≤ 0.06 | ≤ 0.06 | 0.25 (≈ 0.334 µM) | –
CC[C@H]1OC(=O)[C@H](C)[C@@H](O[C@H]2C[C@@](C)(OC)[C@@H](O)[C@H](C)O2)[C@H](C)[C@@H](O[C@@H]2O[C@H](C)C[C@H](N(C)C)[C@H]2O)[C@](C)(O)C[C@@H](C)C(=O)[C@H](C)[C@@H](O)[C@]1(C)O [Erythromycin A, erythromycin A] | – | – | – | – | – | – | 16 (≈ 21.8 µM) | 0.12 (≈ 0.164 µM) | 16 (≈ 21.8 µM) | 2 (≈ 2.73 µM) | 0.12 (≈ 0.164 µM) | 32 (≈ 43.6 µM) | 2 (≈ 2.73 µM) | 1 (≈ 1.36 µM) | ≤ 0.06 | ≤ 0.06 | – | –
4"-Deoxy-4"-amino-9-deoxo-8a-aza-8a-methyl-8a-homoerythromycin A [Example 94] | – | – | – | – | – | – | – | 0.5 | ≤ 0.06 | 0.5 | 1 | 0.12 | 0.25 | 4 | ≤ 0.06 | ≤ 0.06 | 0.12 | –
CC[C@H]1OC(=O)[C@H](C)[C@@H](O[C@H]2C[C@@](C)(OC)[C@@H](O)[C@H](C)O2)[C@H](C)[C@@H](O[C@@H]2O[C@H](C)C[C@H](N(C)C)[C@H]2O)[C@](C)(O)C[C@@H](C)NC[C@H](C)[C@@H](O)[C@]1(C)O [Example 8, 9-Deoxo-8a-aza-8a-homoerythromycin A] | 1 (≈ 1.36 µM) | 0.5 (≈ 0.68 µM) | 8 (≈ 10.9 µM) | 8 (≈ 10.9 µM) | ≤ 0.06 | ≤ 0.06 | 4 (≈ 5.44 µM) | – | – | – | – | – | – | – | – | – | – | MIC [10]: ≤ 0.06 µg/mL; MIC [11]: 0.5 µg/mL (≈ 0.68 µM); MIC [12]: ≤ 0.06 µg/mL; MIC (Escherichia coli MB 4926): 2 µg/mL (≈ 2.72 µM); MIC [13]: 0.25 µg/mL (≈ 0.34 µM); MIC [14]: 128 µg/mL (≈ 174 µM); MIC [15]: 8 µg/mL (≈ 10.9 µM)
CC[C@H]1OC(=O)[C@H](C)[C@@H](O[C@H]2C[C@@](C)(OC)[C@@H](N)[C@H](C)O2)[C@H](C)[C@@H](O[C@@H]2O[C@H](C)C[C@H](N(C)C)[C@H]2O)[C@](C)(O)C[C@@H](C)N(C)C[C@H](C)[C@@H](O)[C@]1(C)O [Example 96, 4"-Deoxy-4"-(S)-amino-9-deoxo-8a-aza-8a-methyl-8a-homoerythromycin A] | – | – | – | – | – | – | – | 0.51 (≈ 0.682 µM) | ≤ 0.06 | 0.25 (≈ 0.334 µM) | 1 (≈ 1.34 µM) | 0.12 (≈ 0.16 µM) | 0.25 (≈ 0.334 µM) | 2 (≈ 2.67 µM) | ≤ 0.06 | ≤ 0.06 | 0.12 (≈ 0.16 µM) | –
